# Assay results: patent publication US20060009637A1, “Molecules as produced by endothermic chemical reactions with anhydrous D-ribose” (priority 2004, published 2006)
# Experiments:
# solubility in water = type: physicochemical; settings: for solubility in water: result in words, monohydrate
# [1] = toxicity of the monohydrate of D-ribose
# heart failure = settings: people with heart failure; cited from earlier work
compound,measurement,setting,value
"O=C[C@H](O)[C@H](O)[C@H](O)CO [anhydrous D-ribose, D-ribose]",water needed to dissolve a kilogram of anhydrous D-ribose,"solubility in water; per kilogram of anhydrous D-ribose, gives clear translucent amber viscous solution if enough time is allowed",less than 168 grams
"O.O=C[C@H](O)[C@H](O)[C@H](O)CO [ribose monohydrate, D-ribose monohydrate]",solubility in water,solubility in water; listed as H2O-ribose product,exceptionally high
same,solubility in water,solubility in water,very soluble in water
same,toxicity,[1],virtually no toxicity
CN(CC(=O)O)C(=N)N [creatine],ejection fraction,heart failure,did not improve
same,skeletal muscle action,heart failure,increasing both strength and endurance
